In patent US9499535B2, “Kinase inhibitors” (ORIGENIS GMBH, priority 2011, dated 2016):
Where two headings read alike, the source gives them in different places.

Columns and labels:
MYLK = MYLK (Homo sapiens, UniProt Q15746); assay: MYLK assay (LanthaScreen Eu Kinase Binding Assay)
Procedure: In the assay LanthaScreen™ Eu Kinase Binding Assay by Invitrogen Corporation (Carlsbad) the effect of invention of a compound on the phosphorylation is determined by measurement of fluorescence intensity emission ratio based on the binding and displacement of a proprietary, Alexa Fluor® 647-labeled, ATP-competitive kinase inhibitor scaffold (kinase tracer) to the kinase of interest as described above.
To the wells of an 384 well small volume plate (Greiner, Frickenhausen) are added (i) the compound under test in 5% DMSO/distilled water (5 μl), (ii) 5 μl of the kinase antibody mixture resulting in a final concentration 5 nM MYLK, 2 nM EU-Anti-GST antibody in 1× kinase buffer A. The reaction was started with addition of (iii) 5 μl resulting in a final concentration of 30 nM tracer 236. The assay plate was incubated at RT for 1 h and fluorescence intensitiy readings were collected using a TECAN M1000 at two wavelengthes of λex 340/λem 615 nm and λex 340/λem 665 nm with a delay time of 100 μs and an integration time of 200 μs after 60 minutes. The emission ratio was calculated by division of the acceptor/tracer emission ([…]) by the antibody/donor emission ([…]). The inhibitor concentration was plotted versus the emission ratio to determine the IC50 using XLFit 5.0 (IDBS, Guildford) to fit to a sigmoidal dose response curve with a variable slope.

SYK kinase = target: T1, SYK kinase (Homo sapiens, UniProt P43405); assay: SYK assay (OMNIA Kinase Assay, Invitrogen); type: biochemical; conditions: apparent Ki calculated from the IC50 using the Cheng-Prusoff equation; 1 mM ATP, 10 μM Peptide Substrate; read-out: SYK Activities: Ki
T1 construct: purchased Invitrogen, Carlsbad
Outline: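 Reaction velocities were measured from kinetic fluorescence reads (360/485 nm, every 30 s over 30 min) of Mg2+-chelated SOX signal. Conditions were 1 mM ATP, 10 μM Omnia Tyr 7 peptide and 0.2 mM DTT at 30° C. Sigmoidal IC50 fits were converted to apparent Ki using Cheng-Prusoff.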

LRRK2 = LRRK2 (Homo sapiens, UniProt Q5S007); assay: LRRK2 assay (LanthaScreen Eu Kinase Binding Assay)
Chain of LRRK2 (Q5S007 970-2527 limits assumed): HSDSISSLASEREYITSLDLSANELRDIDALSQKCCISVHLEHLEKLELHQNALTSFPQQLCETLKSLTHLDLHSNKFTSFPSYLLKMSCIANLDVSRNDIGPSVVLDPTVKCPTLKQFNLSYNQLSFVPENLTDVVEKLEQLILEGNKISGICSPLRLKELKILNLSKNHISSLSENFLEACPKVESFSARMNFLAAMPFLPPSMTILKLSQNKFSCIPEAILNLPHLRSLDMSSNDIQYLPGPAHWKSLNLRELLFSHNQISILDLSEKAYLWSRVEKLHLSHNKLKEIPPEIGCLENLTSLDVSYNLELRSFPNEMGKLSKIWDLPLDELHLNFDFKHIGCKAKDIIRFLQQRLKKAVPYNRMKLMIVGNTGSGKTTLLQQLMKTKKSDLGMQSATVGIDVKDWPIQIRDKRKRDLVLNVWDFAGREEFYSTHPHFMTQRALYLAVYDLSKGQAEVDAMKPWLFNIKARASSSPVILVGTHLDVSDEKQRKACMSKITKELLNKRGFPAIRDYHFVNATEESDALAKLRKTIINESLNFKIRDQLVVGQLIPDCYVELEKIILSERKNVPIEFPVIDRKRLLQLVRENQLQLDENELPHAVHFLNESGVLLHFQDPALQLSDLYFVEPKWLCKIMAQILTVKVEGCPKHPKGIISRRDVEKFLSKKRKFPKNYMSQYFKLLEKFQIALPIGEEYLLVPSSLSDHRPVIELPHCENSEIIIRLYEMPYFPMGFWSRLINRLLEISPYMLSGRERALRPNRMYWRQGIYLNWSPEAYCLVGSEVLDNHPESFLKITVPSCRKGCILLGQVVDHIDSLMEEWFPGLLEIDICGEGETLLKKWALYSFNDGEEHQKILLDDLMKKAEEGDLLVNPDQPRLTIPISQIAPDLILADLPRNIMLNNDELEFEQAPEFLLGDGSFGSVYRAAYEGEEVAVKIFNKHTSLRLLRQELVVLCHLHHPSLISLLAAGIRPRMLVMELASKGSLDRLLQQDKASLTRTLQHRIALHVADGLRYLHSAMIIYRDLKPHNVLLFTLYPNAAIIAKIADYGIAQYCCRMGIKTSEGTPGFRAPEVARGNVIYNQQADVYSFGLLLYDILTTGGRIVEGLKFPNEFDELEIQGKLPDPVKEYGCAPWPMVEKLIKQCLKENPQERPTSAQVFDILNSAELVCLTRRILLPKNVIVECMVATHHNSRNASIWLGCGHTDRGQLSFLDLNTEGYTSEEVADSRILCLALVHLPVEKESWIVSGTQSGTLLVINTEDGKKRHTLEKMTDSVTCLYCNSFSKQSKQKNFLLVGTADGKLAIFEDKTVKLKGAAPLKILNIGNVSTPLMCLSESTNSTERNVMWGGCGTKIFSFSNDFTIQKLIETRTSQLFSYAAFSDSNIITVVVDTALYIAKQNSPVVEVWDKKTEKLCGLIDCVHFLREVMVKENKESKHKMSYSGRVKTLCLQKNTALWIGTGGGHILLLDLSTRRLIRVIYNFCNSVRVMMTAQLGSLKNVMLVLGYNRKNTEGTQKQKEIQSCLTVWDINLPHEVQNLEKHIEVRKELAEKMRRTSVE
Outline: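 IC50 was derived from a sigmoidal dose-response fit with variable slope, plotting emission ratio against inhibitor concentration. The read-out is loss of FRET between a europium-labelled anti-tag antibody on the kinase and a tracer displaced by inhibitor.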

[1] = 5 nM MYLK, 30 nM tracer 236, RT 1 h, read-out: MYLK Activites: IC50
[2] = 5 nM LRRK2, 10 nM tracer 236, RT 1 h, read-out: LRRK2 Activites: IC50
[3] = LRRK2 Activites: IC50, 5 nM LRRK2, 10 nM tracer 236, RT 1 h

Chain of MYLK (Q15746 whole entry): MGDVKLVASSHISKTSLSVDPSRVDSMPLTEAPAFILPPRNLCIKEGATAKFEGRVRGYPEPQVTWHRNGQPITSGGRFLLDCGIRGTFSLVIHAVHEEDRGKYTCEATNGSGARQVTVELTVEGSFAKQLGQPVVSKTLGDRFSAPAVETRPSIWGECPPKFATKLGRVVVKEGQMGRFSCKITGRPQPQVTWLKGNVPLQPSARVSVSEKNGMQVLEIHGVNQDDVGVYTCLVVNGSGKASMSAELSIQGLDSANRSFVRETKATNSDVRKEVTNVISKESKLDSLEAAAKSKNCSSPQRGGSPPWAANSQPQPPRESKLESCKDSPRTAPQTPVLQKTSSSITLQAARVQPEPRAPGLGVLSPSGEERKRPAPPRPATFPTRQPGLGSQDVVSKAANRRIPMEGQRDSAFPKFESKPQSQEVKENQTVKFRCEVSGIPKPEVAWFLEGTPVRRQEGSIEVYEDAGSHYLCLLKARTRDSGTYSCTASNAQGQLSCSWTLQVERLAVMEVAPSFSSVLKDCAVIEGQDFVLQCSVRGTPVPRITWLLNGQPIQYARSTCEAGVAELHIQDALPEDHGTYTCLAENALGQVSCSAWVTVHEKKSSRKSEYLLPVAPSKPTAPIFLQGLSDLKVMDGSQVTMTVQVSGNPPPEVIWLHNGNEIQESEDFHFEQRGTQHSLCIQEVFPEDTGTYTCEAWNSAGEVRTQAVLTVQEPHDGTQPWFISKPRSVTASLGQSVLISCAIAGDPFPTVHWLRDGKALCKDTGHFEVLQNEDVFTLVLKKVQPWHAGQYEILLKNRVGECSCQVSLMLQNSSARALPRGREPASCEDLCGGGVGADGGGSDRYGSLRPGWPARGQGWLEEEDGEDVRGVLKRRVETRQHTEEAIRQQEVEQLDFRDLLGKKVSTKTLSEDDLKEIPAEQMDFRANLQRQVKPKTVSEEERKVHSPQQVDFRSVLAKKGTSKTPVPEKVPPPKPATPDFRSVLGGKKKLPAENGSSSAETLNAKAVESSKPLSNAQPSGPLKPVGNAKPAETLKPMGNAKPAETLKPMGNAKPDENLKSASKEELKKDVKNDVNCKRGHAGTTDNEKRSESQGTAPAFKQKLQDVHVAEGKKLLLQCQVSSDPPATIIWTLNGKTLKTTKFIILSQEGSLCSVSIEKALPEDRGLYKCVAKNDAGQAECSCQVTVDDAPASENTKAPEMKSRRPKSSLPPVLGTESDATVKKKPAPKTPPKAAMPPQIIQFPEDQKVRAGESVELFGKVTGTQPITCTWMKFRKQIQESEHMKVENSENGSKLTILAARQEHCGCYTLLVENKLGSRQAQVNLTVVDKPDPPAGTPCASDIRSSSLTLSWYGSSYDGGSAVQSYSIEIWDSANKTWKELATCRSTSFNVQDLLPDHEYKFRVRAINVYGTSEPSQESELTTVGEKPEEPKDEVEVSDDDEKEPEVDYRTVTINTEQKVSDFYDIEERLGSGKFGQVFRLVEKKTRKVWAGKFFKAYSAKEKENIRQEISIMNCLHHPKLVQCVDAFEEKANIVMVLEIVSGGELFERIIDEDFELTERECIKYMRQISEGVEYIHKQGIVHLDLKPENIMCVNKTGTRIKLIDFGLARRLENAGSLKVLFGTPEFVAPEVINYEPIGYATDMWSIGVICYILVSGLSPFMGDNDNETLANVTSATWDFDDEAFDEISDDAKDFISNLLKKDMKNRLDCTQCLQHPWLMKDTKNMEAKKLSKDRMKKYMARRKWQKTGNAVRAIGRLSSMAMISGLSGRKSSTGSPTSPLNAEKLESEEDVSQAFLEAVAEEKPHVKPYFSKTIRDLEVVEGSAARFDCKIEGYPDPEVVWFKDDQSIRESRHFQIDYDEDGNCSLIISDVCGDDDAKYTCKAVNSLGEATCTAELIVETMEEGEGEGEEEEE

For CN1CCN(c2ccc(Nc3nc4cc(F)ccc4c4cn[nH]c34)cc2)CC1 [Example #337, 7-fluoro-N-(4-(4-methylpiperazin-1-yl)phenyl)-3H-pyrazolo[3,4-c]quinolin-4-amine], the IC50 (MYLK; [1]) was < 5000 nM and the Ki (SYK kinase) was 10 to 100 nM.
COc1ccc2nc(Nc3ccc(N4CCS(=O)(=O)CC4)cc3)c3n[nH]cc3c2c1 [Example #292, 4-(4-((8-methoxy-2H-pyrazolo[3,4-c]quinolin-4-yl)amino)phenyl)thiomorpholine 1,1-dioxide] was tested, and the IC50 (MYLK; [1]) was < 5000 nM and the Ki (SYK kinase) was < 10 nM.
With COc1ccc2nc(Nc3ccc(N4CCN(C(C)=O)CC4)cc3)c3n[nH]cc3c2c1 [Example #164, 1-{4-[4-(8-Methoxy-2H-pyrazolo[3,4-c]quinolin-4-ylamino)-phenyl]-piperazin-1-yl}-ethanone] the IC50 (LRRK2; [2]) was 10 to 100 nM, the IC50 (MYLK; [1]) was < 5000 nM and the Ki (SYK kinase) was < 10 nM.
CC(=O)N1CCN(c2ccc(Nc3nc4ccc(F)cc4c4cn[nH]c34)cc2)CC1 [Example #323, 1-(4-(4-((8-fluoro-3H-pyrazolo[3,4-c]quinolin-4-yl)amino)phenyl)piperazin-1-yl)ethan-1-one] was tested, and the IC50 (LRRK2; [2]) was 100 to 1000 nM, the IC50 (MYLK; [1]) was < 5000 nM and the Ki (SYK kinase) was 100 to 1000 nM.
COc1ccc2nc(Nc3ccc(CO)cc3)c3n[nH]cc3c2c1 [Example #280, (4-((8-methoxy-2H-pyrazolo[3,4-c]quinolin-4-yl)amino)phenyl)methanol] was tested, and the IC50 (LRRK2; [2]) was 100 to 1000 nM, the IC50 (MYLK; [1]) was < 5000 nM and the Ki (SYK kinase) was 10 to 100 nM.
Cc1cc(Nc2nc3ccc(Br)cc3c3c[nH]nc23)cc2cn[nH]c12 [Example #41, (8-Bromo-2H-pyrazolo[3,4-c]quinolin-4-yl)-(7-methyl-1H-indazol-5-yl)-amine] was tested, and the IC50 (MYLK; [1]) was < 5000 nM and the Ki (SYK kinase) was 10 to 100 nM.
For COc1ccc2nc(Nc3ccc(N4CCN(C5CC5)CC4)cc3)c3n[nH]cc3c2c1 [Example #179, [4-(4-Cyclopropyl-piperazin-1-yl)-phenyl]-(8-methoxy-2H-pyrazolo[3,4-c]quinolin-4-yl)-amine], the IC50 (LRRK2; [2]) was 100 to 1000 nM, the IC50 (MYLK; [1]) was < 5000 nM and the Ki (SYK kinase) was 10 to 100 nM.
With COc1ccc2nc(Nc3cccc(S(=O)(=O)C(F)(F)F)c3)c3n[nH]cc3c2c1 [Example #350, 8-methoxy-N-(3-((trifluoromethyl)sulfonyl)phenyl)-2H-pyrazolo[3,4-c]quinolin-4-amine] the IC50 (MYLK; [1]) was < 5000 nM and the Ki (SYK kinase) was 100 to 1000 nM.
In the case of COc1ccc2nc(Nc3nccc(N)n3)c3n[nH]cc3c2c1 [Example #139, N2-(8-methoxy-2H-pyrazolo[3,4-c]quinolin-4-yl)pyrimidine-2,4-diamine], the IC50 (MYLK; [1]) is reported as < 5000 nM and the Ki (SYK kinase) is reported as 100 to 1000 nM.
For COc1ccc2nc(Nc3ccc4ncc(=O)[nH]c4c3)c3n[nH]cc3c2c1 [Example #194, 7-(8-Methoxy-2H-pyrazolo[3,4-c]quinolin-4-ylamino)-1H-quinoxalin-2-one], the IC50 (MYLK; [1]) was < 5000 nM and the Ki (SYK kinase) was 100 to 1000 nM.
COc1ccc2nc(Nc3cccc(S(=O)(=O)N4CCOCC4)c3)c3n[nH]cc3c2c1 [Example #349, 8-methoxy-N-(3-(morpholinosulfonyl)phenyl)-2H-pyrazolo[3,4-c]quinolin-4-amine] was tested, and the IC50 (MYLK; [1]) was < 5000 nM and the Ki (SYK kinase) was 100 to 1000 nM.
With CN1CCN(c2ccc(Nc3nc4ccc(F)cc4c4cn[nH]c34)cc2)CC1 [Example #326, 8-fluoro-N-(4-(4-methylpiperazin-1-yl)phenyl)-3H-pyrazolo[3,4-c]quinolin-4-amine] the IC50 (MYLK; [1]) was < 5000 nM and the Ki (SYK kinase) was 10 to 100 nM.
For COc1cccc2nc(Nc3ccc4c(c3)CN(C)C4)c3[nH]ncc3c12 [Example #352, 9-methoxy-N-(2-methylisoindolin-5-yl)-3H-pyrazolo[3,4-c]quinolin-4-amine], the IC50 (LRRK2; [2]) was 10 to 100 nM and the IC50 (MYLK; [1]) was < 5000 nM.
COc1ccc2nc(Nc3ccc(C(N)=O)cc3)c3n[nH]cc3c2c1 [Example #58, 4-(8-Methoxy-2H-pyrazolo[3,4-c]quinolin-4-ylamino)-benzamide] was tested, and the IC50 (MYLK; [1]) was < 5000 nM and the Ki (SYK kinase) was 10 to 100 nM.
With COc1ccc2nc(Nc3ccc(F)cc3F)c3n[nH]cc3c2c1 [Example #360, N-(2,4-difluorophenyl)-8-methoxy-2H-pyrazolo[3,4-c]quinolin-4-amine] the IC50 (MYLK; [1]) was < 5000 nM.
COc1ccc2nc(Nc3cccc(C(=O)O)c3)c3n[nH]cc3c2c1 [Example #287, 3-((8-methoxy-2H-pyrazolo[3,4-c]quinolin-4-yl)amino)benzoic acid] was tested, and the IC50 (MYLK; [1]) was < 5000 nM and the Ki (SYK kinase) was 100 to 1000 nM.
COc1ccc2nc(Nc3ccc(C(=O)N4CCC5(CC4)OCCO5)cc3)c3n[nH]cc3c2c1 [Example #306, (4-((8-methoxy-2H-pyrazolo[3,4-c]quinolin-4-yl)amino)phenyl)(1,4-dioxa-8-azaspiro[4.5]decan-8-yl)methanone] was tested, and the IC50 (LRRK2; [3]) was 10 to 100 nM and the IC50 (MYLK) was < 5000 nM.
In the case of COc1ccc2nc(Nc3ccc4c(c3)NC(=O)CO4)c3[nH]ncc3c2c1 [Example #291, 6-((8-methoxy-2H-pyrazolo[3,4-c]quinolin-4-yl)amino)-2H-benzo[b][1,4]oxazin-3(4H)-one], the IC50 (MYLK; [1]) is reported as < 5000 nM and the Ki (SYK kinase) is reported as < 10 nM.
With COc1ccc(Nc2nc3ccc(F)cc3c3cn[nH]c23)cc1OC [Example #327, N-(3,4-dimethoxyphenyl)-8-fluoro-3H-pyrazolo[3,4-c]quinolin-4-amine] the IC50 (MYLK; [1]) was < 5000 nM and the Ki (SYK kinase) was 100 to 1000 nM.
In the case of COc1ccc2nc(Nc3ccc(C(=O)N4CCC(N5CCN(C)CC5)CC4)cc3OC)c3n[nH]cc3c2c1 [Example #295, (3-methoxy-4-((8-methoxy-2H-pyrazolo[3,4-c]quinolin-4-yl)amino)phenyl)(4-(4-methylpiperazin-1-yl)piperidin-1-yl)methanone], the IC50 (LRRK2; [2]) is reported as 10 to 100 nM and the IC50 (MYLK; [1]) is reported as < 5000 nM.
With COc1ccc2nc(Nc3ccc(C(=O)N4CCC(=O)CC4)cc3)c3n[nH]cc3c2c1 [Example #305, 1-(4-((8-methoxy-2H-pyrazolo[3,4-c]quinolin-4-yl)amino)benzoyl)piperidin-4-one] the IC50 (LRRK2; [3]) was 10 to 100 nM and the IC50 (MYLK) was < 5000 nM.
With COc1ccc2nc(Nc3ccc(C(=O)N4CCCN(C)CC4)cc3)c3n[nH]cc3c2c1 [Example #304, (4-((8-methoxy-2H-pyrazolo[3,4-c]quinolin-4-yl)amino)phenyl)(4-methyl-1,4-diazepan-1-yl)methanone] the IC50 (LRRK2; [2]) was 100 to 1000 nM and the IC50 (MYLK; [1]) was < 5000 nM.
COc1ccc2nc(Nc3ccc(C(=O)N4CCC(N(C)C)C4)cc3)c3n[nH]cc3c2c1 (centres unmarked) [Example #307, (3-(dimethylamino)pyrrolidin-1-yl)(4-((8-methoxy-2H-pyrazolo[3,4-c]quinolin-4-yl)amino)phenyl)methanone] was tested, and the IC50 (LRRK2; [2]) was 100 to 1000 nM and the IC50 (MYLK; [1]) was < 5000 nM.
COc1ccc(Nc2nc3ccc(I)cc3c3cn[nH]c23)cc1OC [Example #354, N-(3,4-dimethoxyphenyl)-8-iodo-3H-pyrazolo[3,4-c]quinolin-4-amine] was tested, and the IC50 (MYLK; [1]) was < 5000 nM and the Ki (SYK kinase) was 100 to 1000 nM.
For O=C(c1ccc(Nc2nc3ccc(F)cc3c3cn[nH]c23)cc1)N1CCCC1 [Example #322, (4-((8-fluoro-3H-pyrazolo[3,4-c]quinolin-4-yl)amino)phenyl) (pyrrolidin-1-yl)methanone], the IC50 (MYLK; [1]) was < 5000 nM.
With COc1ccc2nc(Nc3cccc(C(C)=O)c3)c3n[nH]cc3c2c1 [Example #127, 1-[3-(8-Methoxy-2H-pyrazolo[3,4-c]quinolin-4-ylamino)-phenyl]-ethanone] the IC50 (LRRK2; [2]) was 100 to 1000 nM and the IC50 (MYLK; [1]) was < 5000 nM.
For COc1ccc2c(c1)nc(Nc1ccc3[nH]cnc3c1)c1n[nH]cc12 [Example #263, (1H-Benzoimidazol-5-yl)-(7-methoxy-2H-pyrazolo[3,4-c]quinolin-4-yl)-amine], the IC50 (MYLK; [1]) was < 5000 nM and the Ki (SYK kinase) was < 10 nM.
With COc1cccc2c1nc(Nc1ccc(CN(C)C)cc1)c1n[nH]cc12 [Example #233, (4-Dimethylaminomethyl-phenyl)-(6-methoxy-2H-pyrazolo[3,4-c]quinolin-4-yl)-amine] the IC50 (MYLK; [1]) was < 5000 nM and the Ki (SYK kinase) was < 10 nM.
For COc1cccc2c1nc(Nc1ccc(CN3CCN(C)CC3)cc1)c1n[nH]cc12 [Example #278, (6-Methoxy-2H-pyrazolo[3,4-c]quinolin-4-yl)-[4-(4-methyl-piperazin-1-ylmethyl)-phenyl]-amine], the IC50 (MYLK; [1]) was < 5000 nM and the Ki (SYK kinase) was 100 to 1000 nM.
For COc1cccc2c1nc(Nc1ccccc1)c1n[nH]cc12 [Example #261, (6-Methoxy-2H-pyrazolo[3,4-c]quinolin-4-yl)-phenyl-amine], the IC50 (MYLK; [1]) was < 5000 nM and the Ki (SYK kinase) was 10 to 100 nM.
For COc1cc(Nc2nc3ccc(OC)cc3c3c[nH]nc23)cc(OC)c1 [Example #341, N-(3,5-dimethoxyphenyl)-8-methoxy-2H-pyrazolo[3,4-c]quinolin-4-amine], the IC50 (MYLK; [1]) was < 5000 nM and the Ki (SYK kinase) was 100 to 1000 nM.
O=C1COc2ccc(Nc3nc4ccc(Br)cc4c4c[nH]nc34)cc2N1 [Example #116, 6-(8-Bromo-2H-pyrazolo[3,4-c]quinolin-4-ylamino)-4H-benzo[1,4]oxazin-3-one] was tested, and the IC50 (MYLK; [1]) was < 5000 nM.
